Here are results for 33 molecules from US11696928B2, “Compounds and use thereof in the expansion of stem cells and/or progenitor cells” (UNIVERSITE DE MONTREAL, priority 2017, dated 2023).

Data set [1] concerns Human CD34+ cord blood (CB) cells. Nature of the data set: Assessment of cell composition in vitro (7-day culture of CB CD34+ cells). Conditions: for expansion of CD34+CD45RA+ cells: alone or in combination with UM171, 7 days, FIGS. 1B, 1C and 1D; for overall percentage of CD34+ cells in cultures: combined use with UM171, 7 days, FIG. 1A right panel and FIG. 1D; for percentage of Dendritic Cells and Mast Cells: combined use with UM171, compared to Compounds used alone, FIG. 1D.

The test system is the same in data set [2]. The experiment in a line: Assessment of engraftment and myeloid vs lymphoid lineage contribution in vivo. More on the design: species or system NSG mice.
Data set [3] has the same test system. Nature of the data set: CD34+ activity assessment (7-day expansion of pre-expanded CD34+ cells, flow cytometry). Conditions: concentration at which compound/vehicle ratio of CD34+ cell number is >= 1.5, 7 days, with 35 nM UM0128171. The data set is classed as cell-based. Background: Flow cytometry measures light scatter and fluorescence of single cells or particles in a stream.

In another data set the target is T1, AhR (Homo sapiens, UniProt P35869).
T1 construct: One of the resultant clones was named HEK-XRE 11.1, and used in the reporter gene assays; endogenous in cells; host or cells: HEK-XRE 11.1 (HEK cells stably carrying the AhR-responsive luciferase reporter X4-4.27 and phRL-CMV)
T1 sequence (P35869 11-848): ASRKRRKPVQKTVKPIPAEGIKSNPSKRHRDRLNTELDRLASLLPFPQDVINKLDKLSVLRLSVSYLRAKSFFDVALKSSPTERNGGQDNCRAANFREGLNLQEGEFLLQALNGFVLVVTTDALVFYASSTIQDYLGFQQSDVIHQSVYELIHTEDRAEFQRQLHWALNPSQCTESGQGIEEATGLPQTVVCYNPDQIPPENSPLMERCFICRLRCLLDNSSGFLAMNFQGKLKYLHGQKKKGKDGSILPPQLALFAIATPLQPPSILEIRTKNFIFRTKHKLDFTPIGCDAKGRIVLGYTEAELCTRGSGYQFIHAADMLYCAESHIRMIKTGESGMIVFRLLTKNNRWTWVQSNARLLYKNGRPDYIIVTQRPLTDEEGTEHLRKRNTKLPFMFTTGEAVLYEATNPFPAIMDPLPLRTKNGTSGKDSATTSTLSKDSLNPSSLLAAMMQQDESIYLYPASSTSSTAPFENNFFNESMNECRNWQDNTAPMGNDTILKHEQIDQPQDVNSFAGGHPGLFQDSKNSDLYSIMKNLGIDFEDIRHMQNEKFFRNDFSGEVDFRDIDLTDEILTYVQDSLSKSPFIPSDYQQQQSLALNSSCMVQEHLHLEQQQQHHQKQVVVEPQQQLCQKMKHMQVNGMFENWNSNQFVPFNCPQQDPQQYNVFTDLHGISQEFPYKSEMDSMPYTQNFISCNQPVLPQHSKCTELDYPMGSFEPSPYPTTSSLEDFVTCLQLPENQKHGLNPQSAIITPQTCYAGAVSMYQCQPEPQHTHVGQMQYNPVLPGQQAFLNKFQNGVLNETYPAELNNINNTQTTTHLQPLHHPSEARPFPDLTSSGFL
The experiment in a line: Inhibition of AhR-mediated gene transcription (HEK-XRE 11.1 luciferase reporter, MeBIO induction). As to conditions: HEK-XRE 11.1 cells, MeBIO 0.1 nM, luminescence after 24 hours. The data set is classed as cell-based. The gist of the method: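 HEK-XRE 11.1 cells, stably carrying an AhR-responsive firefly luciferase reporter, were stimulated with 0.1 nM MeBIO and given compounds in 8-point 1:3 serial dilutions from 10 mM (stock-range figure) in duplicate. Luminescence was read after 24 h culture without Renilla normalisation. Dose-response curves were fitted by nonlinear regression.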

`Nc1c(C(=O)Nc2ccccc2)sc2nc3c(cc12)CCC3` [Compound 1001]: the “number of CD34+ cells in CB cultures” value in data set [1] (7 days culture, compared to other conditions, FIG. 1A middle) was “increases the number of CD34+ cells”. Also, in data set [1], the “expansion of CD34+CD45RA+ cells” value is recorded as “favors the expansion of CD34+CD45RA+ cells”; the “overall percentage of CD34+ cells in cultures” value is “increased the overall percentage of CD34+ cells”; the “percentage of Dendritic Cells and Mast Cells” value was “increased the percentage of Dendritic Cells and Mast Cells”. In addition, the “engraftment of expanded CB cells in the long term (12 and 20 weeks post transplantation)” value in data set [2] (CB cells expanded 7 days, alone or in combination with UM171, NSG mice bone marrow, FIG. 2A) is “engrafted with higher efficiency in the long term”. Moreover, the “contribution of lymphoid lineage” value in data set [2] (engrafted human CB cells in NSG mice, FIG. 2B) is on record as “greatly increased”. In addition, the EC1.5 in data set [3] (Table 1) is recorded as less than 100 nM. At AhR (Table 1), the IC50 – broadly, the concentration at which inhibition is half-maximal – is less than 0.05 µM.

As for `COc1ccc(NC(=O)c2sc3ncc(C)cc3c2N)cc1` [Compound 1114], in data set [1], the “expansion of CD34+CD45RA+ cells” value is “favors the expansion of CD34+CD45RA+ cells”; the “overall percentage of CD34+ cells in cultures” value is on record as “increased the overall percentage of CD34+ cells”; the “percentage of Dendritic Cells and Mast Cells” value is “increased the percentage of Dendritic Cells and Mast Cells”. In data set [3] (Table 1), the EC1.5 is less than 100 nM. This molecule also returned an IC50 at AhR (Table 1) of less than 0.05 µM.

Turning to `Cc1ccc2sc(C(=O)Nc3ccc(F)cc3)c(N)c2c1` [Compound 1120], the EC1.5 in data set [3] (Table 1) is given as less than 100 nM. The same molecule yielded a half-maximal inhibitory concentration (IC50) at AhR (Table 1) of less than 0.05 µM.

In the case of `COc1cc(NC(=O)c2sc3ncc(C(F)(F)F)cc3c2N)ccc1F` [Compound 1121], the EC1.5 in data set [3] (Table 1) was 100 to 1000 nM. The molecule also returned an IC50 at AhR (Table 1) of 0.05 to 0.5 µM.

Consider `CCOc1ccc(NC(=O)c2sc3ncc(C(F)(F)F)cc3c2N)cc1` [Compound 1122], for which the EC1.5 in data set [3] (Table 1) was less than 100 nM. Moreover, the IC50 against AhR (Table 1) was less than 0.05 µM.

For `NC(=O)c1ccc(NC(=O)c2sc3ncc(C(F)(F)F)cc3c2N)cc1` [Compound 1123], the EC1.5 in data set [3] (Table 1) was more than 5000 nM. Also, at AhR (Table 1), the IC50 was in the range of 0.05 to 0.5 µM.

As for `CNC(=O)c1ccc(NC(=O)c2sc3ncc(C(F)(F)F)cc3c2N)cc1` [Compound 1124], the EC1.5 in data set [3] (Table 1) lay within 100 to 1000 nM. The same molecule registered an IC50 on AhR (Table 1) of 0.05 to 0.5 µM.

Regarding `COC(=O)c1ccc(NC(=O)c2sc3ncc(C(F)(F)F)cc3c2N)cc1` [Compound 1125], the EC1.5 in data set [3] (Table 1) was in the range of 100 to 1000 nM. In addition, the IC50 against AhR (Table 1) was in the range of 0.05 to 0.5 µM.

On to `CN(C)c1ccc(NC(=O)c2sc3ncc(C(F)(F)F)cc3c2N)cc1` [Compound 1126], for which the EC1.5 in data set [3] (Table 1) was 1000 to 5000 nM. The IC50 at AhR (Table 1) fell in the range of 0.05 to 0.5 µM.

As to `Nc1c(C(=O)Nc2ccc(S(N)(=O)=O)cc2)sc2ncc(C(F)(F)F)cc12` [Compound 1127], the EC1.5 in data set [3] (Table 1) is given as more than 5000 nM. Also, the IC50 against AhR (Table 1) was 0.05 to 0.5 µM.

Take `COc1ccc(NC(=O)c2sc3ccc(C)nc3c2N)cc1` [Compound 1129]: the EC1.5 in data set [3] (Table 1) is 100 to 1000 nM. In addition, the 50% inhibitory concentration (IC50) at AhR (Table 1) fell in the range of 0.05 to 0.5 µM.

As to `Cc1ccc2sc(C(=O)Nc3ccc(Cl)cc3)c(N)c2c1` [Compound 1130], in data set [3] (Table 1), the EC1.5 was more than 5000 nM. At AhR (Table 1), this molecule came in with an IC50 of 0.05 to 0.5 µM.

`Cc1ccc(NC(=O)c2sc3ccc(C)cc3c2N)cc1` [Compound 1131]: the EC1.5 in data set [3] (Table 1) is recorded as more than 5000 nM. Further, at AhR (Table 1), the IC50 lay within 0.05 to 0.5 µM.

On to `Cc1ccc2sc(C(=O)Nc3ccc(Br)cc3)c(N)c2c1` [Compound 1132], for which, in data set [3] (Table 1), the EC1.5 is more than 5000 nM. Also, the IC50 on AhR (Table 1) is 0.05 to 0.5 µM.

For the molecule `COc1ccc(NC(=O)c2sc3ncc(C)cc3c2N)cc1Cl` [Compound 1135], the EC1.5 in data set [3] (Table 1) is on record as less than 100 nM. This molecule returned an IC50 against AhR (Table 1) of less than 0.05 µM.

For `COc1ccc(NC(=O)c2sc3ccc(C(F)(F)F)cc3c2N)cc1Cl` [Compound 1136], in data set [3] (Table 1), the EC1.5 is listed as more than 5000 nM. At AhR (Table 1), this molecule yielded an IC50 of less than 0.05 µM.

`Cc1cnc2sc(C(=O)Nc3ccc(C(F)(F)F)cc3)c(N)c2c1` [Compound 1137]: in data set [3] (Table 1), the EC1.5 is given as less than 100 nM. For the same molecule, the IC50 against AhR (Table 1) is less than 0.05 µM.

On to `Nc1c(C(=O)Nc2ccc(C(F)(F)F)cc2)sc2ccc(C(F)(F)F)cc12` [Compound 1138], for which, in data set [3] (Table 1), the EC1.5 is listed as more than 5000 nM. In addition, the IC50 at AhR (Table 1) fell in the range of 0.05 to 0.5 µM.

Consider `Cc1cnc2sc(C(=O)Nc3cccc(Cl)c3)c(N)c2c1` [Compound 1139], for which the EC1.5 in data set [3] (Table 1) was 100 to 1000 nM. On AhR (Table 1), this molecule gave an IC50 of less than 0.05 µM.

In the case of `Cc1cccc(NC(=O)c2sc3ncc(C)cc3c2N)c1` [Compound 1140], the EC1.5 in data set [3] (Table 1) fell in the range of 100 to 1000 nM. This molecule had an IC50 on AhR (Table 1) of 0.05 to 0.5 µM.

With `Cc1cnc2sc(C(=O)Nc3ccc4c(c3)OCCO4)c(N)c2c1` [Compound 1141], the EC1.5 in data set [3] (Table 1) lay in the range of 100 to 1000 nM. Further, the IC50 against AhR (Table 1) is 0.05 to 0.5 µM.

`CCOc1ccc(NC(=O)c2sc3ncc(C)cc3c2N)cc1` [Compound 1142]: the EC1.5 in data set [3] (Table 1) was in the range of 100 to 1000 nM. The molecule also showed an IC50 at AhR (Table 1) of less than 0.05 µM.

On to `CSc1ccc(NC(=O)c2sc3ncc(C)cc3c2N)cc1` [Compound 1143], for which, in data set [3] (Table 1), the EC1.5 was less than 100 nM. On AhR (Table 1), this molecule registered a concentration for half-maximal inhibition (IC50) of less than 0.05 µM.

In the case of `Nc1c(C(=O)Nc2cccc(Cl)c2)sc2ccc(C(F)(F)F)cc12` [Compound 1144], the EC1.5 in data set [3] (Table 1) was more than 5000 nM. For the same molecule, the IC50 against AhR (Table 1) is less than 0.05 µM.

`Cc1cccc(NC(=O)c2sc3ccc(C(F)(F)F)cc3c2N)c1` [Compound 1145]: in data set [3] (Table 1), the EC1.5 is reported as more than 5000 nM. Also, the IC50 at AhR (Table 1) was in the range of 0.05 to 0.5 µM.

In the case of `Nc1c(C(=O)Nc2ccc3c(c2)OCCO3)sc2ccc(C(F)(F)F)cc12` [Compound 1146], the EC1.5 in data set [3] (Table 1) is on record as more than 5000 nM. Moreover, on AhR (Table 1), the IC50 lay in the range of 0.05 to 0.5 µM.

As to `CCOc1ccc(NC(=O)c2sc3ccc(C(F)(F)F)cc3c2N)cc1` [Compound 1147], the EC1.5 in data set [3] (Table 1) was more than 5000 nM. At AhR (Table 1), this molecule returned an IC50 of 0.05 to 0.5 µM.

As to `CSc1ccc(NC(=O)c2sc3ccc(C(F)(F)F)cc3c2N)cc1` [Compound 1148], the EC1.5 in data set [3] (Table 1) lay within 100 to 1000 nM. In addition, the IC50 on AhR (Table 1) fell in the range of 0.05 to 0.5 µM.

Take `Cc1cnc2sc(C(=O)Nc3ccc(OC(F)(F)F)cc3)c(N)c2c1` [Compound 1149]: the EC1.5 in data set [3] (Table 1) lay in the range of 100 to 1000 nM. Further, the IC50 at AhR (Table 1) is less than 0.05 µM.

In the case of `Cc1cnc2sc(C(=O)Nc3ccsc3)c(N)c2c1` [Compound 1150], the EC1.5 in data set [3] (Table 1) fell in the range of 100 to 1000 nM. In addition, the IC50 on AhR (Table 1) is less than 0.05 µM.

On to `Cc1ccc2sc(C(=O)Nc3ccc(OC(F)(F)F)cc3)c(N)c2c1` [Compound 1151], for which, in data set [3] (Table 1), the EC1.5 was more than 5000 nM. Moreover, the IC50 on AhR (Table 1) lay in the range of 0.05 to 0.5 µM.

Regarding `Nc1c(C(=O)Nc2ccsc2)sc2ccc(C(F)(F)F)cc12` [Compound 1152], in data set [3] (Table 1), the EC1.5 was more than 5000 nM. Moreover, on AhR (Table 1), the IC50 was less than 0.05 µM.

In the case of `Nc1c(C(=O)Nc2ccc(F)cc2)oc2ncc(C(F)(F)F)cc12` [Compound 1154], the EC1.5 in data set [3] (Table 2) is 100 to 1000 nM. The same molecule displayed an IC50 against AhR (Table 2) of less than 0.05 µM.
